This note sets out measurements from patent US10080739B2, “Aryl imidazoles and their use as anti-cancer agents” (Aptose Biosciences Inc., priority 2003, dated 2018).

Molecules are shown by their SMILES. “Also recorded” adds a separate entry of the source.

One experiment has as its target T1, PAK2 (Homo sapiens, UniProt Q13177).
T1 construct: purchased Upstate Biotechnologies (kinase profiler service)
Briefly: kinase profiler, PAK2. Format: biochemical. The conditions noted are these: 10 μM compound, 100 μM ATP, mean of % control. The protocol: (§1) Compound 45 was tested for its ability to function as a kinase inhibitor using the kinase profiler service from Upstate Biotechnologies. The general protocol employed is as follows: recombinant kinases were incubated with specific substrates, 10 mM MgAcetate, and [γ-^33P-ATP]. The reaction was initiated by the addition of MgATP mix. After incubation at room temperature for 40 minutes, the reaction was stopped by the addition of 5 μl of a 3% phosphoric acid solution. 10 μl of the reaction was then spotted on to a P30 filtermat and washed 3 times for 5 min. in 75 mM phosphoric acid and once in methanol prior to drying and scintillation counting. Each reaction was performed in duplicate with 100 μM ATP −/+10 μM compound 45. Results are presented in Table IV and are expressed as the mean of % control (no compound). PI 3-kinase-γ (PI3K-γ) activity was determined with the PIProfiler™ assay, which measures the binding of the GRP1 pleckstrin homology (PH) domain to PIP3, the product of PI3K acting on its physiological substrate PIP2.

Another experiment has as its target T2, TrkA (Homo sapiens, UniProt P04629).
T2 construct: purchased Upstate Biotechnologies (kinase profiler service)
Description: kinase profiler, TrkA. Format: biochemical. As to conditions: 10 μM compound, 100 μM ATP, mean of % control. The protocol: as §1

The next experiment deals with T3, MAPK1 (Homo sapiens, UniProt P27361).
T3 construct: purchased Upstate Biotechnologies (kinase profiler service)
T3 sequence (P27361 whole entry): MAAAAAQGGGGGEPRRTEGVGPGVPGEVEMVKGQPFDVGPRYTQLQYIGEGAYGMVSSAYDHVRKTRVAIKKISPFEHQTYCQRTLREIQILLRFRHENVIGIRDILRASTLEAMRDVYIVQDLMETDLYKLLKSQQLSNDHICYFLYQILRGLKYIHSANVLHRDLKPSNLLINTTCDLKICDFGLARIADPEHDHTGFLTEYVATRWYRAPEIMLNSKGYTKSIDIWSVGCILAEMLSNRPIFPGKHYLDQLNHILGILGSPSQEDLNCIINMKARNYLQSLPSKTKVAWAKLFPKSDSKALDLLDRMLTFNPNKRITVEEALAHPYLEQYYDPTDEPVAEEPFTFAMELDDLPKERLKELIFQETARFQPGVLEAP
Briefly: kinase profiler, MAPK1. Format: biochemical. As to conditions: 10 μM compound, 100 μM ATP, mean of % control. The protocol: as §1

The target of another experiment is T4, CHK1 (Homo sapiens, UniProt O14757).
T4 construct: purchased Upstate Biotechnologies (kinase profiler service)
T4 sequence (O14757 whole entry): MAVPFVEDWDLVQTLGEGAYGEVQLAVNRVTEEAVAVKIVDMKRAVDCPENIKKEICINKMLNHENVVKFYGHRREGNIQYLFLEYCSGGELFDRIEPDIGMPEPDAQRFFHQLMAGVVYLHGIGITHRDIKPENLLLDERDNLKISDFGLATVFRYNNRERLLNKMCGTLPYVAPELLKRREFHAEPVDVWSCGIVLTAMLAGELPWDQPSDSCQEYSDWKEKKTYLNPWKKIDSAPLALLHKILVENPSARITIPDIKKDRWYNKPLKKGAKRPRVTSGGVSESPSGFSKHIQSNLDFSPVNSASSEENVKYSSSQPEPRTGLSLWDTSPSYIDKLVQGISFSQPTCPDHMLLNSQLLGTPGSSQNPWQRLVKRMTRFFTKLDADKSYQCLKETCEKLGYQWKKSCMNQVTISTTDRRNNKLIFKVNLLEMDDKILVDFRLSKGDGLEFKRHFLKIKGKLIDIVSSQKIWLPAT
Briefly: kinase profiler, CHK1. Format: biochemical. As to conditions: 10 μM compound, 100 μM ATP, mean of % control. As for the experimental part: as §1

The test system of experiment [1] is HT-29 colon adenocarcinoma cells. Description: cell cycle analysis by flow cytometry. Format: cell-based, human. The conditions noted are these: HT-29 cells starved 3 days, 15 μM or 25 μM for 24 or 48 hours, 10% serum. As for the experimental part: The effect of treatment with compound 45 on cell cycle progression in HT-29 colon adenocarcinoma cells was examined by flow cytometry (FIG. 22). Values were determined by gate analysis of flow cytometric plots and are presented in FIG. 22 as a percentage of the total cell population, after eliminating doubles. Apoptotic events inferred by the surface area preceding G1 phase. Cells were starved for 3 days, and treated with 15 μM or 25 μM compound 45 for 24 or 48 hours in the presence of 10% serum, followed by flow cytometric analysis.
For orientation: A flow cytometer gives signals particle by particle.

Experiment [2] concerns HT29 colon adenocarcinoma cells. Description: morphological changes (vacuoles), HT29. Format: cell-based, human. As to conditions: treatment for 24 hours. The text has this: These vacuoles are not formed in DMSO- or doxorubicin-treated cells. Moreover, the nuclear membrane is no longer evident in the phase-contrast images of cells treated with compound 45, even though the nucleus is still intact, as shown by DAPI staining.

For a further experiment, the target named is T5, PKBα (Homo sapiens, UniProt P31749).
T5 construct: purchased Upstate Biotechnologies (kinase profiler service)
Description: kinase profiler, PKBα. Format: biochemical. As to conditions: 10 μM compound, 100 μM ATP, mean of % control. The protocol:
as §1

The target of a further experiment is T6, TAK1 (Homo sapiens, UniProt O43318).
T6 construct: purchased Upstate Biotechnologies (kinase profiler service)
Description: kinase profiler, TAK1. Format: biochemical. As to conditions: 10 μM compound, 100 μM ATP, mean of % control. As for the experimental part:
as §1

The target of the next experiment is T7, IKKβ (Homo sapiens, UniProt O14920).
T7 construct: purchased Upstate Biotechnologies (kinase profiler service)
T7 sequence (O14920 whole entry): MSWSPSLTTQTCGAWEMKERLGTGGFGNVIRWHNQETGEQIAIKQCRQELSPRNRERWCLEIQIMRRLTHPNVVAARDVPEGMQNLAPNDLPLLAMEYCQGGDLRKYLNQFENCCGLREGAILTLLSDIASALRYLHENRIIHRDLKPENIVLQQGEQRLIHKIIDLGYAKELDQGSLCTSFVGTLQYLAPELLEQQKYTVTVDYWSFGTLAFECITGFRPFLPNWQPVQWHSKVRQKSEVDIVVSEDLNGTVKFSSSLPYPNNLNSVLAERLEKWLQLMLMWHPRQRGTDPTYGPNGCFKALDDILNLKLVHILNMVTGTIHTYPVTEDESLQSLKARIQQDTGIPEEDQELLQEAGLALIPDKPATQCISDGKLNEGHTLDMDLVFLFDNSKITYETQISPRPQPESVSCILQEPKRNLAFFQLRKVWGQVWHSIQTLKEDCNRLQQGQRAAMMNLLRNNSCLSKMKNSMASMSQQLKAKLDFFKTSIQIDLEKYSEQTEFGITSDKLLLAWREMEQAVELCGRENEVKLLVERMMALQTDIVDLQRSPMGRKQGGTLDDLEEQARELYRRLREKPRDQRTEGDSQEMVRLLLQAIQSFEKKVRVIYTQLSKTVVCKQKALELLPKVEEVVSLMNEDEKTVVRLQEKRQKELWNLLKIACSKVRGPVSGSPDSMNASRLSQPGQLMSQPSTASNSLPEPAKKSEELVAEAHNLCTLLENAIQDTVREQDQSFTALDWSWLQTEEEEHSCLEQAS
Description: kinase profiler, IKKβ. The conditions noted are these: 10 μM compound, 100 μM ATP, mean of % control. Format: biochemical. The protocol: as §1

The next experiment deals with T8, NEK2 (Homo sapiens, UniProt P51955).
T8 construct: purchased Upstate Biotechnologies (kinase profiler service)
T8 sequence (P51955 whole entry): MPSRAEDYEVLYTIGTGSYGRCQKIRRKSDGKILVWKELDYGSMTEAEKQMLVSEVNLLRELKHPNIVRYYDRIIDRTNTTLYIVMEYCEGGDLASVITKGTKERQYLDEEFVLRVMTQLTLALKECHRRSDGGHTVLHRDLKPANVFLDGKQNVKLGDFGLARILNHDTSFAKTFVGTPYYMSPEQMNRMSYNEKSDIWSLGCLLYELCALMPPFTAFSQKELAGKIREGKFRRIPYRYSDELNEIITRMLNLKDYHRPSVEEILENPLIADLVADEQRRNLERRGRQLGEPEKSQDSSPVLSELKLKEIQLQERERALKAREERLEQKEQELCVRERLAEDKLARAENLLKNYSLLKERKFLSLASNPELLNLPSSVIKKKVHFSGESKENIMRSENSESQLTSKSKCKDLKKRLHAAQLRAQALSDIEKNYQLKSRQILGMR
Description: kinase profiler, NEK2. Format: biochemical. As to conditions: 10 μM compound, 100 μM ATP, mean of % control. As for the experimental part:
as §1

Another experiment addresses T9, Ax1 (Homo sapiens, UniProt P30530).
T9 construct: purchased Upstate Biotechnologies (kinase profiler service)
Briefly: kinase profiler, Ax1. Format: biochemical. As to conditions: 10 μM compound, 100 μM ATP, mean of % control. The protocol:
as §1

A further experiment concerns the target T10, CDK3/cyclinE (Homo sapiens, UniProt Q00526).
T10 construct: purchased Upstate Biotechnologies (kinase profiler service)
Briefly: kinase profiler, CDK3/cyclinE. Format: biochemical. As to conditions: 10 μM compound, 100 μM ATP, mean of % control. The protocol: as §1

The next experiment has as its target T11, SAPK3 (Homo sapiens, UniProt P53778).
T11 construct: purchased Upstate Biotechnologies (kinase profiler service)
Description: kinase profiler, SAPK3. Format: biochemical. As to conditions: 10 μM compound, 100 μM ATP, mean of % control. As for the experimental part: as §1

The target of another experiment is T12, Rse (Homo sapiens, UniProt Q06418).
T12 construct: purchased Upstate Biotechnologies (kinase profiler service)
T12 sequence (Q06418 41-890): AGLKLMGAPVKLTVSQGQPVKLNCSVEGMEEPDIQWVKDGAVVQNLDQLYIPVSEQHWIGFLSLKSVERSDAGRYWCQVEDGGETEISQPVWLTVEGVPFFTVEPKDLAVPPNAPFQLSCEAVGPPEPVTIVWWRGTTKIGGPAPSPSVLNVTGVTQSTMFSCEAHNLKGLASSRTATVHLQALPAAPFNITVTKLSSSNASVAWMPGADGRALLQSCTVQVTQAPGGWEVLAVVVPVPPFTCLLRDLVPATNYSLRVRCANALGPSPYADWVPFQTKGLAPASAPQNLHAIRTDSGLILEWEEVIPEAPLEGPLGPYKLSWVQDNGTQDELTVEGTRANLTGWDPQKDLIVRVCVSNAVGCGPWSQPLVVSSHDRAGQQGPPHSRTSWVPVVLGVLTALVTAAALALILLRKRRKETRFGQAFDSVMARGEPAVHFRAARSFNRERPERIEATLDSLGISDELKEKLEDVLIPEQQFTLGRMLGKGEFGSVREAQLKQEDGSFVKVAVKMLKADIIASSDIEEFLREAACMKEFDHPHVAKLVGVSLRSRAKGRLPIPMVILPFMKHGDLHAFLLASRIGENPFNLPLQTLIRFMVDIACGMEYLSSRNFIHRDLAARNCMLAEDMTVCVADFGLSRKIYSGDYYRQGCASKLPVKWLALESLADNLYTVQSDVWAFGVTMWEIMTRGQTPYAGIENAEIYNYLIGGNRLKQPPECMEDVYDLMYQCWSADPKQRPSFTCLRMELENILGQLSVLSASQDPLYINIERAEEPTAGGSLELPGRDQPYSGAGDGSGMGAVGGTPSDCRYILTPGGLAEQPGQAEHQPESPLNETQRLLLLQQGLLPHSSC
Briefly: kinase profiler, Rse. Format: biochemical. As to conditions: 10 μM compound, 100 μM ATP, mean of % control. As for the experimental part:
as §1

The target in a further experiment is T13, PI 3-kinase-γ (PI3K-γ) (Homo sapiens, UniProt P48736).
T13 construct: purchased Upstate Biotechnologies (kinase profiler / PIProfiler service)
Description: PIProfiler assay, PI3K-γ. Format: biochemical. As to conditions: PI3K[…] (PI3Kγ), 10 μM compound, mean of % control. As for the experimental part:
as §1

Experiment [3] concerns human colon carcinoma cells (HT-29). Description: XTT cell proliferation assay, HT-29 cells, 48 h. Format: cell-based. The conditions noted are these: read-out: % Survival. As for the experimental part: Selected compounds of Formula I were tested for anti-cancer activity in vitro using a human colon carcinoma cells (HT-29) and human non-small cell lung cancer cells (H460). The cells were maintained in α-MEM medium (Wisent, St-Bruno, Qc) supplemented with 10% FBS, and grown at 37° C. in an atmosphere of 5% CO2. Cells were transferred onto 150 mm tissue culture plates and grown until sub-confluency (70-80%) prior to their use.
The anti-cancer activity in vitro was evaluated by a cell proliferation assay based on the ability of live cells to reduce the tetrazolium salt XTT to orange coloured compounds of formazan (XTT cell proliferation kit II, Roche Applied Science, Montreal, QC).
Approximately 4×10^3 colon cancer cells (HT-29) or 2×10^3 non-small cell lung cancer cells (NCI-H460) in 100 μl of complete culture medium were plated onto 96-well microtiter plates and incubated overnight at 37° C. The medium was then removed by inverting the plate and patting on a sterile absorbent cloth. Fifty μl of medium containing the test compound at either 25 or 100 μM, were added to the wells containing cells and incubated at 37° C. in an atmosphere of 5% CO2 for 48 h. Following incubation, 25 μl of an XTT reaction mixture (XTT at a final concentration of 0.3 mg/ml) were added to each well and the plates were incubated for a further 4 h. The absorbance of each sample was then determined at a wavelength of 490 nm/650 nm as reference. Each compound was tested in duplicate and the results are reported as averages.
A general note: Tetrazolium assays rely on reduction of a dye to a coloured formazan, in cell work by metabolically active cells.

T11 sequence (P53778 whole entry): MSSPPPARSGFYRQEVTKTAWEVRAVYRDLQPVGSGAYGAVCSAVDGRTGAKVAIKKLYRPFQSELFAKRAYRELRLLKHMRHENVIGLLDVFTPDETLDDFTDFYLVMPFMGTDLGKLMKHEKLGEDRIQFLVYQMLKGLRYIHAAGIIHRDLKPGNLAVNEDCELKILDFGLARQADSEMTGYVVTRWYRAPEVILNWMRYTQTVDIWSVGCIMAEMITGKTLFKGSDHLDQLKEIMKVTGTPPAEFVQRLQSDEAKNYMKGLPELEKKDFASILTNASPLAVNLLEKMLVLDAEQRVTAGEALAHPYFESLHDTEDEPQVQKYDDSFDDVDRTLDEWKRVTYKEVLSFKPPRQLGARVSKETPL
T10 sequence (P24864 whole entry): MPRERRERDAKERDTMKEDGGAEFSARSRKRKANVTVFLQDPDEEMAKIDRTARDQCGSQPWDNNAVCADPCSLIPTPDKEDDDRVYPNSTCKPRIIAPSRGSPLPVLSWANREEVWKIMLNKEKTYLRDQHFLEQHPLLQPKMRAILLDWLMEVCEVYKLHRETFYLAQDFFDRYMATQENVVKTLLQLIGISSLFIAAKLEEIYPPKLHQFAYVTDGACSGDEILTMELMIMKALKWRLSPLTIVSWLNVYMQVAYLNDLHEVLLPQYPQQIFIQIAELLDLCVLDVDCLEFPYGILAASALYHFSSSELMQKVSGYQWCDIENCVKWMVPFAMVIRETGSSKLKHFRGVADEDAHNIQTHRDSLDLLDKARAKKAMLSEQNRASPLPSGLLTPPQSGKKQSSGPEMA
T10 sequence (Q00526 whole entry): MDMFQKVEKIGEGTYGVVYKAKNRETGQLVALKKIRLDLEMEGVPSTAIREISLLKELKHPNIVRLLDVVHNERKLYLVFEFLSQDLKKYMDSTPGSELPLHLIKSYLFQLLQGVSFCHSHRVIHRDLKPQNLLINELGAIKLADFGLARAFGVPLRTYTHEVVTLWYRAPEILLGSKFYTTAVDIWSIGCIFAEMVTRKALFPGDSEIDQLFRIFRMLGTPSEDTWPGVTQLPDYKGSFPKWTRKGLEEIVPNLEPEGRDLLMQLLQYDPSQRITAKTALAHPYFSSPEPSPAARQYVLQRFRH
T9 sequence (P30530 26-894): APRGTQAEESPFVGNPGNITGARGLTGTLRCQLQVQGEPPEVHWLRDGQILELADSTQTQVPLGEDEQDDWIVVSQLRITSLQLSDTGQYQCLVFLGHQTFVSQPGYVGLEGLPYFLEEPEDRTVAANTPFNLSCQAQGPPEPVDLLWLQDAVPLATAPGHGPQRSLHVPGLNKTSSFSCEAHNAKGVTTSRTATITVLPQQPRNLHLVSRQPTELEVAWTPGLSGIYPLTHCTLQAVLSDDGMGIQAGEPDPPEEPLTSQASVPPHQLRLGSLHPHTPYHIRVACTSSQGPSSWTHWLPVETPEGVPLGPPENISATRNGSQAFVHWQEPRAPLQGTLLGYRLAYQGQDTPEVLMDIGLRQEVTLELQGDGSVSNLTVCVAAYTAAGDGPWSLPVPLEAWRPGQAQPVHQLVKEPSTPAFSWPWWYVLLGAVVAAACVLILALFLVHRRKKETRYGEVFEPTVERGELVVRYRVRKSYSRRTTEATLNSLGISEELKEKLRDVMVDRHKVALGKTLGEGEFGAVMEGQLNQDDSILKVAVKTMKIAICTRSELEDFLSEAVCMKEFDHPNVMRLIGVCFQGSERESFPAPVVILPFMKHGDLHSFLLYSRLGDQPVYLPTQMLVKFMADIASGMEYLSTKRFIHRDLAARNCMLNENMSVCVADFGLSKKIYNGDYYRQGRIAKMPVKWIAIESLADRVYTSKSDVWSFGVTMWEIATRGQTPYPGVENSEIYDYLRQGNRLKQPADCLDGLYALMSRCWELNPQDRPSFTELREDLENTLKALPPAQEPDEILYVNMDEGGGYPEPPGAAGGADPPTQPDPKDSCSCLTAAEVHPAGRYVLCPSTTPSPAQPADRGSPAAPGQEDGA

As to `Brc1ccc2[nH]cc(-c3nc4c5ccccc5c5ccccc5c4[nH]3)c2c1` [Compound 45], the activity at 10 µM is 89% at PAK2; 56% at TrkA; 85% on MAPK1; 111% at CHK1; 95% at PKBα; 104% on TAK1. The activity at 10 µM at IKKβ was 111%; on NEK2, 90%; at Ax1, 100%; on CDK3/cyclinE it was 107%; on SAPK3 it was 54%; at Rse it was 176%. Further, the activity at 10 µM at PI 3-kinase-γ (PI3K-γ) was 22%. The “effect on cell cycle progression” value in experiment [1] was “increase of cells in the G1 phase and a decrease in the S and G2/M phases; also recorded: partial arrest in the G0/G1 phase”. The formation of vacuoles result in [2] is on record as “formation of large vacuoles within the cytoplasm”. Besides, the viability at 25 µM in experiment [3] (25 μM compound) came to 88.9%. Moreover, in experiment [3] (100 μM compound), the viability at 100 µM stood at 35%.
